In patent US7045528B2, “Benzofused heterozryl amide derivatives of thienopyridines useful as therapeutic agents, pharmaceutical compositions including the same, and methods for their use” (Agouron Pharmaceuticals, Inc., priority 2002, dated 2006):
pIC50, pKi: −log10 of the molar value. Read-outs that look alike come from different tables or passages of the source.

How the values were obtained:
PDGFRβ = biological target: T1, PDGFRβ (Homo sapiens, UniProt P09619); assay: PAE-PDGFRβ phosphorylation in PAE-PDGFRB cells assay; assay type: cell-based; settings: for IC50: PAE cells overexpressing human PDGFRβ, PDGF-BB stimulated, read-out: PAE PDGFR autophos IC50 (nM) AVG
T1 construct: expressed in transfected cells; host or cells: porcine aorta endothelial (PAE)-PDGFRβ cells
Description: PAE-PDGFRβ Phosphorylation in PAE-PDGFRB Cells Assay
This assay determines the ability of a test compound to inhibit the autophosphorylation of PDGFRβ in porcine aorta endothelial (PAE)-PDGFRβ cells. PAE cells that overexpress human PDGFRβ were used in this assay. The cells were cultured in Ham's F12 media supplemented with 10% fetal bovine serum (FBS) and 400 ug/ml G418. Twenty thousands cells were seeded in each well of a 96-well plate in 50 μL of growth media and allowed to attach for 6 hours at 37° C. Cells were then exposed to the starvation media (Ham's F12 media supplemented with 0.1% FBS) for 16 hours. After the starvation period was over, 10 μL of test agent in 5% DMSO in starvation media were added to the test wells and 10 μL of the vehicle (5% DMSO in starvation media) were added into the control wells. The final DMSO concentration in each well was 0.5%. Plates were incubated at 37° C. for 1 hour and the cells were then stimulated with 1 μg/mL PDGF-BB (R & D System) in the presence of 2 mM Na3VO4 for 8 minutes. The cells were washed once with 1 mm Na3VO4 in HBSS and lysed by adding 50 μL per well of lysis buffer. One hundred μL of dilution buffer were then added to each well and the diluted cell lysate was transferred to a 96-well goat ant-rabbit coated plate (Pierce), which was pre-coated with Rabbit anti Human PDGFRβ antibody (Santa Cruz). The plates were incubated at room temperature for 2 hours and washed seven times with 1% Tween 20 in PBS. HRP-PY20 (Santa Cruz) was diluted and added to the plate for a 30-minute incubation. Plates were then washed again and TMB peroxidase substrate (Kirkegaard & Perry) was added for a 10-minute incubation. One hundred μL of 0.09 N H2SO4 was added into each well of the 96-well plate to stop the reaction. Phosphorylation status was assessed by spectrophotometer reading at 450 nm. IC50 values were calculated by curve fitting using a four-parameter analysis.

[1] = biological target: T2, unphosphorylated VEGF-R2Δ50 (FLVK) (Homo sapiens, UniProt P35968, DEL940-989/E990V); assay: VEGF-R2 coupled spectrophotometric assay, unphosphorylated VEGF-R2Δ50 (FLVK); assay type: biochemical; settings: for inhibition at 0.05 µM: 50 nM compound, read-out: FLVK (% inh @ 50 nM); for inhibition at 0.05 µM / pKi: unphosphorylated VEGF-R2Δ50; for inhibition at 0.1 µM: percent inhibition at 100 nM, library amides from Example 101 (R101), crude mixtures in DMSO, read-out: FLVK (% @ 100 nM)
T2 construct: VEGF-R2Δ50 contains residues 806–939 and 990–1171; made in house; host or cells: baculovirus/insect cell system
Excerpt: VEGF-R2 Construct for Assay:
This construct determines the ability of a test compound to inhibit tyrosine kinase activity. A construct (VEGF-R2Δ50) of the cytosolic domain of human vascular endothelial growth factor receptor 2 (VEGF-R2) lacking the 50 central residues of the 68 residues of the kinase insert domain was expressed in a baculovirus/insect cell system. Of the 1356 residues of full-length VEGF-R2, VEGF-R2Δ50 contains residues 806–939 and 990–1171, and also one point mutation (E990V) within the kinase insert domain relative to wild-type VEGF-R2. Autophosphorylation of the purified construct was performed by incubation of the enzyme at a concentration of 4 μM in the presence of 3 mM ATP and 40 mM MgCl2 in 100 mM HEPES, pH 7.5, containing 5% glycerol and 5 mM DTT, at 4° C. for 2 h. […] See Parast et al., Biochemistry, 37, 16788–16801 (1998).
Coupled Spectrophotometric (FLVK-P) Assay
The production of ADP from ATP that accompanies phosphoryl transfer was coupled to oxidation of NADH using phosphoenolpyruvate (PEP) and a system having pyruvate kinase (PK) and lactic dehydrogenase (LDH). The oxidation of NADH was monitored by following the decrease of absorbance at 340 nm (e340=6.22 cm^−1 mM^−1) using a Beckman DU 650 spectrophotometer. Assay conditions for phosphorylated VEGF-R2Δ50 (indicated as FLVK-P in the tables below) were the following: 1 mM PEP; 250 μM NADH; 50 units of LDH/mL; 20 units of PK/mL; 5 mM DTT; 5.1 mM poly(E4Y1); 1 mM ATP; and 25 mM MgCl2 in 200 mM HEPES, pH 7.5. Assay conditions for unphosphorylated VEGF-R2Δ50 (indicated as FLVK in the tables) were the following: 1 mM PEP; 250 μM NADH; 50 units of LDH/mL; 20 units of PK/mL; 5 mM DTT; 20 mM poly(E4Y1); 3 mM ATP; and 60 mM MgCl2 and 2 mM MnCl2 in 200 mM HEPES, pH 7.5. Assays were initiated with 5 to 40 nM of enzyme. Ki values were determined by measuring enzyme activity in the presence of varying concentrations of test compounds. […] The binding inhibitions were fitted to equation as described by Morrison. The data were analyzed using Enzyme Kinetic and Kaleidagraph software.

[2] = library amides from Example 101 (R101), crude mixtures in DMSO, read-out: PAE PDGFR autophos IC50

T1 sequence (P09619 33-1106): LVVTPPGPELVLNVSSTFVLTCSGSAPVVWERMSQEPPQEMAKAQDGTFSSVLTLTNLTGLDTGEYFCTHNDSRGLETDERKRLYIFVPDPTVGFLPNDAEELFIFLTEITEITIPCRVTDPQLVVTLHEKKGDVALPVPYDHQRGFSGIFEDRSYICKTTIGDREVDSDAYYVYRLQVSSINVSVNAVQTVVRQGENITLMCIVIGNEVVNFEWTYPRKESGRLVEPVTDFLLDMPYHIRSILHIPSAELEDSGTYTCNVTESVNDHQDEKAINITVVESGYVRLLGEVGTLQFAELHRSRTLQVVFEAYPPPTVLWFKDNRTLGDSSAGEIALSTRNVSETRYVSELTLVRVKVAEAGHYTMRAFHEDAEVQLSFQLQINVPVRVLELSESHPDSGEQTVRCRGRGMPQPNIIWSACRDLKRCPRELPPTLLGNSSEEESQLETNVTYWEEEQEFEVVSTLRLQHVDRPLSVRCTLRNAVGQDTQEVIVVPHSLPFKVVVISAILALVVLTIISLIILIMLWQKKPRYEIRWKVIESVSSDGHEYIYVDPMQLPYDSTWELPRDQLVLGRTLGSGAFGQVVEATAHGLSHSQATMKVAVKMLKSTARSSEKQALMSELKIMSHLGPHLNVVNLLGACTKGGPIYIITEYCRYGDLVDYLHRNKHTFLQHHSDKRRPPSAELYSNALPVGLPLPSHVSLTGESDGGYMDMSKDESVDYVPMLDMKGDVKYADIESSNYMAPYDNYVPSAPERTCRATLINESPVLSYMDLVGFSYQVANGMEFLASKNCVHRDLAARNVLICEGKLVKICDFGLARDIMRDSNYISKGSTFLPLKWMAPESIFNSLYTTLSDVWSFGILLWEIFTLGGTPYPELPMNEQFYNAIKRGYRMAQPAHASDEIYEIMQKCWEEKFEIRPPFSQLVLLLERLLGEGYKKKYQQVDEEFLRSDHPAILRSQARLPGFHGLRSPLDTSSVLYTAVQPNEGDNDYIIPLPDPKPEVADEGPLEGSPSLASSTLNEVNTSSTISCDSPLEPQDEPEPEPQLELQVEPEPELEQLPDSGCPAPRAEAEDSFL
T2 sequence (P35968 with tags, fused parts or gaps DEL940-989/E990V limits assumed): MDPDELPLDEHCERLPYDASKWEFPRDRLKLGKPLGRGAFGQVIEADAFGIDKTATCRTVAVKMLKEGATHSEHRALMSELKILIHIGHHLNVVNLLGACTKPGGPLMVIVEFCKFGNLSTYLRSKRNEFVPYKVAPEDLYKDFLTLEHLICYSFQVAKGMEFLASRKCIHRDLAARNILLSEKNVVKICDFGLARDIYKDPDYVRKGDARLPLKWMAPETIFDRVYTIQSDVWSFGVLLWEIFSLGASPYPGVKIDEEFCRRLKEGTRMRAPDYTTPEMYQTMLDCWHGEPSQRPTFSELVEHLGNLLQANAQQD

IC50 (PDGFRβ) | inhibition at 0.05 µM [1] | pKi [1] | pIC50 (PDGFRβ; [2]) | inhibition at 0.1 µM [1] | SMILES | pIC50 (PDGFRβ)
205 nM | 13% | 7.02 | – | – | CNC(=O)c1c(C)n(C)c2cc(Oc3ccnc4cc(C(=O)N5CC[C@@H](N(C)C)C5)sc34)ccc12 [Example 27, 6-[(2-{[(3R)-3-(Dimethylamino)pyrrolidin-1-yl]carbonyl}thieno[3,2-b]pyridin-7-yl)oxy]-N,1,2-trimethyl-1H-indole-3-carboxamide] | –
29.2 nM | 22% | 7.40 | – | – | CNC(=O)c1c(C)n(C)c2cc(Oc3ccnc4cc(C(=O)N(C)CCCN(C)C)sc34)ccc12 [Example 32, N-[3-(Dimethylamino)propyl]-7-({1,2-dimethyl-3-[(methylamino)carbonyl]-1H-indol-6-yl}oxy)-N-methylthieno[3,2-b]pyridine-2-carboxamide] | –
468 nM | 40% | 8.23 | – | – | Cc1sc2cc(Oc3ccnc4ccsc34)ccc2c1C(=O)NCCN1CCOCC1 [Example 133, 2-Methyl 6-(thieno[3,2-b]pyridin-7-yloxy)benzo[b]thiophene-3-carboxylic acid (2-morpholin-4-yl)ethylamide] | –
563 nM | 66% | 8.33 | – | – | CNC(=O)c1c(C)oc2cc(Oc3ccnc4ccsc34)ccc12 [Example 99, 6-[Thieno(3,2-b)pyridin-7-yloxy]-2-methyl-benzofuran-3-carboxylic acid methyl amide] | –
– | – | – | 7.30 | – | Cc1oc2cc(Oc3ccnc4ccsc34)ccc2c1C(=O)NCCN1CCOCC1 [drawing 310] | –
– | – | – | < 7.00 | 91% | Cc1oc2cc(Oc3ccnc4ccsc34)ccc2c1C(=O)Nc1cc[nH]n1 | –
– | – | – | < 7.00 | 51% | COC(=O)C1CN1C(=O)c1c(C)oc2cc(Oc3ccnc4ccsc34)ccc12 (stereo not shown) | –
203 nM | 52% | 8.15 | – | – | Cc1oc2cc(Oc3ccnc4ccsc34)ccc2c1C(=O)NCCN1CCOCC1 [Example 103, 2-Methyl-6-[thieno[3,2-b]pyridin-7-yloxy]benzofuran-3-carboxylic acid (2-morpholin-4-yl-ethyl)-amide] | –
351 nM | 58% | 8.29 | – | – | COC[C@@H]1CCCN1C(=O)c1cc2nccc(Oc3ccc4c(C(=O)NCCCO)c(C)sc4c3)c2s1 [Example 122, 6-[(2-{[(2S)-2-(Methoxymethyl)pyrrolidin-1-yl]carbonyl}thieno[3,2-b]pyridin-7-yl)oxy]-2-methylbenzo[b]thiophene-3-carboxylic acid 3-hydroxypropylamide] | –
31.3 nM | 45% | 7.94 | – | – | CNC(=O)c1c(C)n(C)c2cc(Oc3ccnc4cc(C(=O)N5CC[C@@H](N(C)C(=O)OC(C)(C)C)C5)sc34)ccc12 [Example 34, tert-Butyl-(3R)-1-{[7-({1,2-dimethyl-3-[(methylamino)carbonyl]-1H-indol-6-yl}oxy)thieno[3,2-b]pyridin-2-yl]carbonyl}pyrrolidin-3-yl(methyl)carbamate] | –
– | 82% | – | – | – | Cc1oc2cc(Oc3ccnc4ccsc34)ccc2c1C(=O)NCCOC(C)C [Example 109, 2-Methyl-6-(thieno[3,2-b]pyridin-7-yloxy)-benzofuran-3-carboxylic acid (2-isopropoxy-ethyl)-amide] | –
– | 19% | 7.11 | – | – | CNC(=O)c1cn(C)c2cc(Oc3ccnc4cc(-c5nccn5C)sc34)ccc12 [Example 23, 1-Methyl-6-[2-(1-methyl-1H-imidazol-2-yl)-thieno[3,2-b]pyridin-7-yloxy]-1H-indole-3-carboxylic acid methylamide] | –
– | 61% | – | – | – | Cc1oc2cc(Oc3ccnc4ccsc34)ccc2c1C(=O)NCCc1ccc(S(N)(=O)=O)cc1 [Example 108, 2-Methyl-6-(thieno[3,2-b]pyridin-7-yloxy)-benzofuran-3-carboxylic acid [2-(4-sulfamoyl-phenyl)-ethyl]-amide] | –
– | 36% | 7.44 | – | – | CNC(=O)c1c(C)n(C)c2cc(Oc3ccnc4cc(-c5ncccn5)sc34)ccc12 [Example 50, 1,2-Dimethyl-6-(2-pyrimidin-2-yl-thieno[3,2-b]pyridin-7-yloxy)-1H-indole-3-carboxylic acid methylamide] | –
127 nM | 61% | 8.08 | – | – | CCCCNC(=O)c1c(C)oc2cc(Oc3ccnc4ccsc34)ccc12 [Example 105, 2-Methyl-6-[Thieno(3,2-b)pyridin-7-yloxy]benzofuran-3-carboxylic acid butyl amide] | –
313 nM | 43% | 7.90 | – | – | CCc1c(C(=O)NC)c2ccc(Oc3ccnc4cc(-c5nccn5C)sc34)cc2n1C [Example 74, 2-Ethyl-1-methyl-6-[2-(1-methyl-1H-imidazol-2-yl)-thieno[3,2-b]pyridin-7-yloxy]-1H-indole-3-carboxylic acid methylamide] | –
– | – | – | 7.31 | 52% | COC(=O)[C@H](Cc1c[nH]cn1)NC(=O)c1c(C)oc2cc(Oc3ccnc4ccsc34)ccc12 | –
44 nM | 84% | 8.57 | – | – | CO[C@@H]1CCN(C(=O)c2cc3nccc(Oc4ccc5c(C(=O)NCCO)c(C)oc5c4)c3s2)C1 [Example 93, 6-[2-(3-Methoxy-pyrrolidine-1-carbonyl)-thieno[3,2-b]pyridin-7-yloxy]-2-methyl-benzofuran-3-carboxylic acid 2-hydroxyethyl amide] | –

SMILES | IC50 (PDGFRβ) | inhibition at 0.05 µM [1] | pKi [1] | pIC50 (PDGFRβ; [2]) | inhibition at 0.1 µM [1] | pIC50 (PDGFRβ)
CNC(=O)c1c(C)n(C)c2cc(Oc3ccnc4cc(C(=O)N5CC[C@@H](NC)C5)sc34)ccc12 [Example 35, 1,2-Dimethyl-6-[2-(3-methylamino-pyrrolidine-1-carbonyl)-thieno[3,2-b]pyridin-7-yloxy]-1H-indole-3-carboxylic acid methylamide] | – | 23% | 7.45 | – | – | 7.15
